For the experiment, the system named is E. coli ATCC 35218. The experiment can be described thus: Resistance development assay. As to conditions: after 16 passages, serial passaging in sub-MIC concentrations. It is filed as cell-based.

In the case of `O=C(O)c1cn(C2CC2)c2cc(N3CCNCC3)c(F)cc2c1=O` [ciprofloxacin], the “fold increase of MIC against E. coli ATCC 35218” value was determined as 256 fold.

With colistin, the “fold increase of MIC against E. coli ATCC 35218” value amounted to 128 fold.

(Values after publication PMC11364095 (Science Advances, 2024).)
